{
  "source": "patent US20210346497A1",
  "about": "“Methods of Treating Cancer” (Tesaro, Inc., priority 2018, published 2021)",
  "origin": "cited, not measured here",
  "key": {"[1]": {"tested_on": "MDA-MB-436, CAPAN-1, GRANTA-519, OVCAR3, HT29, DLD-1, patient derived Ewing's sarcoma and TNBC xenograft models", "conditions": "BRCA-1 mutant breast, BRCA-2 mutant pancreatic, ATM-mutant mantle cell lymphoma, serous ovarian, colorectal, TNBC xenografts in mice"}, "[2]": {"tested_on": "cancer cell lines silenced for BRCA-1 or BRCA-2, or carrying BRCA-1 or BRCA-2 mutations"}, "[3]": {"tested_on": "PARP activity in various cell lines"}},
  "data": [
    {"molecule": "Cc1ccc(S(=O)(=O)O)cc1.NC(=O)c1cccc2cn(-c3ccc([C@@H]4CCCNC4)cc3)nc12", "note": "[Niraparib, (3S)-3-[4-{7-(aminocarbonyl)-2H-indazol-2-yl}phenyl]piperidine]", "values": [
      {"measurement": "cell cycle arrest", "setting": "tumor cell", "value": "arrest in the G2/M phase of the cell cycle"},
      {"measurement": "activity on normal human cells", "setting": "normal human cells", "value": "weak activity"},
      {"measurement": "antitumor activity in vivo", "setting": "[1]", "value": "strong antitumor activity"},
      {"measurement": "anti-proliferative activity", "setting": "[2]; BRCA-1/BRCA-2 silenced or mutant cancer cell lines compared to wild type counterparts", "value": "selective anti-proliferative activity"},
      {"measurement": "consequence on cell cycle of BRCA-defective cells", "setting": "[2]; BRCA-defective cells", "value": "cell cycle arrest in G2/M followed by apoptosis"},
      {"measurement": "IC50", "setting": "[3]; read-out: IC50 of PARP activity in cells, PARP activity stimulated by DNA damage caused by hydrogen peroxide", "value": "~4", "unit": "nM"},
      {"measurement": "IC90", "setting": "[3]; read-out: inhibitory concentration at 90% of control (IC90) of PARP activity in cells, PARP activity stimulated by DNA damage caused by hydrogen peroxide", "value": "~50", "unit": "nM"}
    ]}
  ]
}
